This passage reports EC50 results from US20260137819A1 (Radionetics Oncology, Inc., priority 2022, published 2026).

Usually EC50 stands for the midpoint of the concentration-response curve.

Structures are written as SMILES.

This assay has as its target T1, human follicle-stimulating hormone receptor (FSHR) (Homo sapiens, UniProt P23945).
T1 construct: host or cells: CHO-K1
T1 sequence (P23945 18-695): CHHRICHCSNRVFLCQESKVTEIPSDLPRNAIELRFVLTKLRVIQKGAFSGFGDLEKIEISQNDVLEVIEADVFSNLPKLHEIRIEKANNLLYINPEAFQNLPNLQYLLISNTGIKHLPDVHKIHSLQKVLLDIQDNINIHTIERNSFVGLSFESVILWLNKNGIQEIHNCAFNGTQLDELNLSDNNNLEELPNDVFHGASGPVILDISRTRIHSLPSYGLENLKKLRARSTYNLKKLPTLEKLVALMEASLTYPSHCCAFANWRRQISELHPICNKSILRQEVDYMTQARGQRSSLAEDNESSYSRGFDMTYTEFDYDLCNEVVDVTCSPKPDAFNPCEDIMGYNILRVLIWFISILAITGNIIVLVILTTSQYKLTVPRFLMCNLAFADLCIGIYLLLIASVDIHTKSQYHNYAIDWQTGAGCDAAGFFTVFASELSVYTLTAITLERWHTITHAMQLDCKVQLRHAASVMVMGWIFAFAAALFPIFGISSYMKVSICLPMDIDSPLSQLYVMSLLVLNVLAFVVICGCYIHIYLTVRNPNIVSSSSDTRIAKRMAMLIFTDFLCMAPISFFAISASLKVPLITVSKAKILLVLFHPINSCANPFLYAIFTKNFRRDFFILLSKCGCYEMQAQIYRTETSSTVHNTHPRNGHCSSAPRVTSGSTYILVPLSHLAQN
The assay can be described thus: Measurement of agonist cAMP production by activation of human FSHR. The following applies: CHO-K1 human FSHR cells, 30 minutes at 37° C., HTRF cAMP kit; read-out: hFSHR Agonist cAMP EC50. Format: cell-based. Summed up: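 cAMP output was measured by HTRF after 30 min at 37 °C agonist exposure (0–10,000 nM final) in stably FSHR-transfected CHO-K1 cells. Lysate cAMP was read off a standard curve and fitted to obtain half-maximal EC50.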
For the molecule `COc1cc2c(cc1-c1cncc(NC(=O)CN(C)C(=O)CN(C)C(=O)CN(C)C(=O)CN(C)C(=O)CN(C)C(=O)CCNC(=O)CN3CCN(CC(=O)O)CCN(CC(=O)O)CCN(CC(=O)O)CC3)c1)-c1c(c(C(=O)N3CCOCC3(C)C)nn1-c1cc(F)cc(F)c1)CO2` [Compound 59], the concentration for a half-maximal effect (EC50) is more than 100 nM.
Turning to `COc1cc2c(cc1-c1cncc(NC(=O)CCC(=O)N(CCOCCOCCC(=O)O)C3CCN(C(=O)CN4CCN(CC(=O)O)CCN(CC(=O)O)CCN(CC(=O)O)CC4)CC3)c1)-c1c(c(C(=O)N3CCOCC3(C)C)nn1-c1cc(F)cc(F)c1)CO2` [Compound 60, 2,2′,2″-(10-(2-(4-(N-(2-(2-(2-carboxyethoxy)ethoxy)ethyl)-4-((5-(1-(3,5-difluorophenyl)-3-(3,3-dimethylmorpholine-4-carbonyl)-7-methoxy-1,4-dihydrochromeno[4,3-c]pyrazol-8-yl)pyridin-3-yl)amino)-4-oxobutanamido)piperidin-1-yl)-2-oxoethyl)-1,4,7,10-tetraazacyclododecane-1,4,7-triyl)triacetic acid--formic acid (1/1)], the EC50 was in the range of 10 to 100 nM.
Turning to `COc1cc2c(cc1-c1cncc(NC(=O)CNC(=O)CC[C@@H](NC(=O)CN3CCN(CC(=O)O)CCN(CC(=O)O)CCN(CC(=O)O)CC3)C(=O)O)c1)-c1c(c(C(=O)N3CCOCC3(C)C)nn1-c1cc(F)cc(F)c1)CO2` [Compound 61, (R)-2,2′,2″-(10-(2-((1-carboxy-4-((2-((5-(1-(3,5-difluorophenyl)-3-(3,3-dimethylmorpholine-4-carbonyl)-7-methoxy-1,4-dihydrochromeno[4,3-c]pyrazol-8-yl)pyridin-3-yl)amino)-2-oxoethyl)amino)-4-oxobutyl)amino)-2-oxoethyl)-1,4,7,10-tetraazacyclododecane-1,4,7-triyl)triacetic acid], the EC50 lay within 10 to 100 nM.
As for `COc1cc2c(cc1-c1cncc(NCCCNC(=O)CCOCCNC(=O)CN3CCN(CC(=O)O)CCN(CC(=O)O)CCN(CC(=O)O)CC3)c1)-c1c(c(C(=O)N3CCOCC3(C)C)nn1-c1cc(F)cc(F)c1)CO2` [Compound 62], the figure is 10 to 100 nM; as for `COc1cc2c(cc1-c1cccc(NC(=O)C3CCC(CNC(=O)C(CS(=O)(=O)O)NC(=O)CN4CCN(CC(=O)O)CCN(CC(=O)O)CCN(CC(=O)O)CC4)CC3)c1)-c1c(c(C(=O)N3CCOCC3(C)C)nn1-c1cc(Cl)cc(Cl)c1)CO2` [Compound 65, 2,2′,2″-(10-(2-(((R)-1-((((1r,4R)-4-((3-(1-(3,5-dichlorophenyl)-3-(3,3-dimethylmorpholine-4-carbonyl)-7-methoxy-1,4-dihydrochromeno[4,3-c]pyrazol-8-yl)phenyl)carbamoyl)cyclohexyl)methyl)amino)-1-oxo-3-sulfopropan-2-yl)amino)-2-oxoethyl)-1,4,7,10-tetraazacyclododecane-1,4,7-triyl)triacetic acid], 10 to 100 nM; as for `COc1cc2c(cc1-c1cccc(NC(=O)CN3CCC(NC(=O)[C@H](CS(=O)(=O)O)NC(=O)CN4CCN(CC(=O)O)CCN(CC(=O)O)CCN(CC(=O)O)CC4)CC3)c1)-c1c(c(C(=O)N3CCOCC3(C)C)nn1-c1cc(Cl)cc(Cl)c1)CO2` [Compound 66], 10 to 100 nM.
As for `COc1cc2c(cc1-c1cncc(NCCOCCOCCOCCOCCNC(=O)[C@H](CS(=O)(=O)O)NC(=O)CN3CCN(CC(=O)O)CCN(CC(=O)O)CCN(CC(=O)O)CC3)c1)-c1c(c(C(=O)N3CCOCC3(C)C)nn1-c1cc(Cl)cc(Cl)c1)CO2` [Compound 67, (R)-2,2′,2″-(10-(20-((5-(1-(3,5-dichlorophenyl)-3-(3,3-dimethylmorpholine-4carbonyl)-7-methoxy-1,4-dihydrochromeno|4,3-c|pyrazol-8-yl)pyridin-3-yl)amino)-2,5-dioxo-4-(sulfomethyl)-9,12,15,18-tetraoxa-3,6-diazaicosyl)-1,4,7,10-tetraazacyclododecane-1,4,7-triyl)triacetic acid--2,2,2-trifluoroacetic acid (1/1)], the figure is less than 10 nM; as for `COc1cc2c(cc1-c1cncc(OCCOCCOCCOCCOCCNC(=O)[C@H](CS(=O)(=O)O)NC(=O)CN3CCN(CC(=O)O)CCN(CC(=O)O)CCN(CC(=O)O)CC3)c1)-c1c(c(C(=O)N3CCOCC3(C)C)nn1-c1cc(Cl)cc(Cl)c1)CO2` [Compound 68, (R)-2,2′,2″-(10-(20-((5-(1-(3,5-dichlorophenyl)-3-(3,3-dimethylmorpholine-4carbonyl)-7-methoxy-1,4-dihydrochromeno|4,3-c|pyrazol-8-yl)pyridin-3-yl)oxy)-2,5-dioxo-4-(sulfomethyl)-9,12,15,18-tetraoxa-3,6-diazaicosyl)-1,4,7,10-tetraazacyclododecane-1,4,7-triyl)triacetic acid], less than 10 nM; as for `COc1cc2c(cc1-c1cccc(NC(=O)CCOCCOCCNC(=O)[C@H](CS(=O)(=O)O)NC(=O)CN3CCN(CC(=O)O)CCN(CC(=O)O)CCN(CC(=O)O)CC3)c1)-c1c(c(C(=O)N3CCOCC3(C)C)nn1-c1cc(Cl)cc(Cl)c1)CO2` [Compound 69], less than 10 nM.
Under `COc1cc2c(cc1-c1cccc(NCCOCCOCCOCCOCCNC(=O)[C@H](CS(=O)(=O)O)NC(=O)CN3CCN(CC(=O)O)CCN(CC(=O)O)CCN(CC(=O)O)CC3)c1)-c1c(c(C(=O)N3CCOCC3(C)C)nn1-c1cc(Cl)cc(Cl)c1)CO2` [Compound 71] stands less than 10 nM; under `COc1cc2c(cc1-c1cncc(COCCOCCOCCOCCNC(=O)[C@H](CS(=O)(=O)O)NC(=O)CN3CCN(CC(=O)O)CCN(CC(=O)O)CCN(CC(=O)O)CC3)c1)-c1c(c(C(=O)N3CCOCC3(C)C)nn1-c1cc(Cl)cc(Cl)c1)CO2` [Compound 72, (R)-2,2′,2″-(10-(1-(5-(1-(3,5-dichlorophenyl)-3-(3,3-dimethylmorpholine-4carbonyl)-7-methoxy-1,4-dihydrochromeno|4,3-c|pyrazol-8-yl)pyridin-3-yl)-15,18-dioxo-16-(sulfomethyl)-2,5,8,11-tetraoxa-14,17-diazanonadecan-19-yl)-1,4,7,10-tetraazacyclododecane-1,4,7-triyl)triacetic acid], 10 to 100 nM.
Take `COc1cc2c(cc1-c1cccc(OCCCNC(=O)[C@@H](CCCNC(=N)N)NC(=O)CCNC(=O)CN3CCN(CC(=O)O)CCN(CC(=O)O)CCN(CC(=O)O)CC3)c1)-c1c(c(C(=O)N3CCOCC3(C)C)nn1-c1cc(Cl)cc(Cl)c1)CO2` [Compound 73]: the 50% effective concentration (EC50) was less than 10 nM.
Take `COc1cc2c(cc1-c1cccc(OCCCNC(=O)[C@@H](CCC(=O)O)NCCOCCNC(=O)[C@H](CS(=O)(=O)O)NC(=O)CN3CCN(CC(=O)O)CCN(CC(=O)O)CCN(CC(=O)O)CC3)c1)-c1c(c(C(=O)N3CCOCC3(C)C)nn1-c1cc(Cl)cc(Cl)c1)CO2` [Compound 74, 2,2′,2″-(10-((4R,13R)-13-(2-carboxyethyl)-18-(3-(1-(3,5-dichlorophenyl)-3(3,3-dimethylmorpholine-4-carbonyl)-7-methoxy-1,4-dihydrochromeno[4,3-c]pyrazol-8-yl)phenoxy)-2,5,14-trioxo-4-(sulfomethyl)-9-oxa-3,6,12,15-tetraazaoctadecyl)-1,4,7,10-tetraazacyclododecane-1,4,7-triyl)triacetic acid--2,2,2-trifluoroacetic acid (1/1)]: the half-maximal effective concentration (EC50) was 10 to 100 nM.
Consider `COc1cc2c(cc1-c1cccc(OCCOCCOCCOCCOCCNC(=O)[C@H](CS(=O)(=O)O)NC(=O)CN3CCN(CC(=O)O)CCN(CC(=O)O)CCN(CC(=O)O)CC3)c1)-c1c(c(C(=O)N3CC(=O)NCC3(C)C)nn1-c1cc(Cl)cc(Cl)c1)CO2` [Compound 75], for which the EC50 fell in the range of 10 to 100 nM.
Under `COc1cc2c(cc1-c1cncc(OCCOCCOCCOCCOCCNC(=O)[C@H](CS(=O)(=O)O)NC(=O)CN3CCN(CC(=O)O)CCN(CC(=O)O)CCN(CC(=O)O)CC3)c1)-c1c(c(C(=O)N3CCCN(C(=O)C4CCC4)CC3)nn1-c1cccs1)CO2` [Compound 76, (R)-2,2′,2″-(10-(20-((5-(3-(4-(cyclobutanecarbonyl)-1,4-diazepane-1carbonyl)-7-methoxy-1-(thiophen-2-yl)-1,4-dihydrochromeno[4,3-c]pyrazol-8-yl)pyridin-3-yl)oxy)-2,5-dioxo-4-(sulfomethyl)-9,12,15,18-tetraoxa-3,6-diazaicosyl)-1,4,7,10-tetraazacyclododecane-1,4,7-triyl)triacetic acid] stands 10 to 100 nM; under `COc1cc2c(cc1-c1cncc(OCCCNC(=O)[C@@H](CCC(=O)O)NC(=O)CCNC(=O)CN3CCN(CC(=O)O)CCN(CC(=O)O)CCN(CC(=O)O)CC3)c1)-c1c(c(C(=O)N3CCCN(C(=O)C4CCC4)CC3)nn1-c1cccs1)CO2` [Compound 77], 10 to 100 nM.
